Measurements: patent publication US12447153B2, “HER2 mutation inhibitors” (Array BioPharma Inc., priority 2021, dated 2025)

Assays:
[1] = biological target: BCRP (Homo sapiens (Human), UniProt Q9UNQ0); experiment: BCRP MDCKII efflux assay (Assay 7); type: in vitro ADME; conditions: dog; efflux ratio Papp(B-A)/Papp(A-B), BCRP MDCKII cells; read-out: Assay 7 Pe Ratio
Method: Assay conditions included with and without the BCRP-specific inhibitor, KO143, at a concentration of 0.3 μM to ascertain the contribution of BCRP to the efflux value of the test compound.
Final organic concentration in the assay was 1%.

[2] = biological target: EGFR wild type (EGFR WT) (Homo sapiens (Human), UniProt P00533); experiment: Cellular Phosphorylation Assay, Assay 5 (EGF-stimulated EGFR phosphorylation, NIH 3T3 cells); type: cell-based; conditions: EGF-stimulated EGFR WT phosphorylation
[3] = biological target: ErbB2 with Exon 20 YVMA insertion (HER2-YVMA) (Homo sapiens (Human), UniProt P04626, INS775YVMA); experiment: Cellular Phosphorylation Assay, Assay 4 (constitutive ErbB2 phosphorylation, NIH 3T3 cells); type: cell-based; conditions: ErbB2 YVMA phosphorylation
[4] = biological target: ErbB2 WT (Homo sapiens (Human), UniProt P04626); experiment: ErbB Enzyme Assay (HTRF KinEASE-TK), Assay 2; type: biochemical; conditions: ErbB2 WT enzyme
[5] = biological target: EGFR (Homo sapiens (Human), UniProt P00533); experiment: ErbB Enzyme Assay (HTRF KinEASE-TK), Assay 3; type: biochemical; conditions: EGFR enzyme
EGFR, sequence (P00533 25-1210): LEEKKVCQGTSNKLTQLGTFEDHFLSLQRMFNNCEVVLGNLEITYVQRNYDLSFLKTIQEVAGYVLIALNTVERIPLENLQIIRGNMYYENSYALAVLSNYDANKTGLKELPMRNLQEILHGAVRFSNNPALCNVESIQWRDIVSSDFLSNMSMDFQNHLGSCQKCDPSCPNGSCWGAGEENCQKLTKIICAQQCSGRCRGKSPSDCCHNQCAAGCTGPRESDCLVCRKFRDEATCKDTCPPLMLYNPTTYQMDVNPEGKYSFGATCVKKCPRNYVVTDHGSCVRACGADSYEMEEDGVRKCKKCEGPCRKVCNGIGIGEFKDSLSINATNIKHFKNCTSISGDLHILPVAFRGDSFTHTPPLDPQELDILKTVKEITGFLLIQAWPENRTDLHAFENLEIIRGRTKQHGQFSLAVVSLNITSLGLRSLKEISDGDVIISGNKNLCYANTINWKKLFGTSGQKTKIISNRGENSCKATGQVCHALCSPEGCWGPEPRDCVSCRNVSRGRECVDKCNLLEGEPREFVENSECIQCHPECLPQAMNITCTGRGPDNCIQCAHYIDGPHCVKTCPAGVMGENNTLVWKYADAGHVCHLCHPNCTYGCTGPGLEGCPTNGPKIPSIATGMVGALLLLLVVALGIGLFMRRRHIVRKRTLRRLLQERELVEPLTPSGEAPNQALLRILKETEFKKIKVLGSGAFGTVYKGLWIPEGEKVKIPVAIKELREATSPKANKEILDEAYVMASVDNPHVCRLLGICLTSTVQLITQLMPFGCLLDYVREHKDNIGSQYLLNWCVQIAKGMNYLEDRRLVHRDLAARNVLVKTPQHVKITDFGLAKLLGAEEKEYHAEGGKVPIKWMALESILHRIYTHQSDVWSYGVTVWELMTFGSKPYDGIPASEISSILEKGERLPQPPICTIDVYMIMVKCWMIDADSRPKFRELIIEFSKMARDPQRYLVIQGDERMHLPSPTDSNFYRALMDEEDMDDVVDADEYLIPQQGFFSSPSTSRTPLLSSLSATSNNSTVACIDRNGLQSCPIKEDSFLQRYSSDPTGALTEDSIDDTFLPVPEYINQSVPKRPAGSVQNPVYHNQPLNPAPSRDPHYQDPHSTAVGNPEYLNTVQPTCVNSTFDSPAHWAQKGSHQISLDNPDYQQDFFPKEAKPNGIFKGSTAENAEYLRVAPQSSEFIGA

ErbB2 with Exon 20 YVMA insertion (HER2-YVMA), sequence (P04626 other isoform, or with tags, fused parts or gaps ins YVMA behind 775): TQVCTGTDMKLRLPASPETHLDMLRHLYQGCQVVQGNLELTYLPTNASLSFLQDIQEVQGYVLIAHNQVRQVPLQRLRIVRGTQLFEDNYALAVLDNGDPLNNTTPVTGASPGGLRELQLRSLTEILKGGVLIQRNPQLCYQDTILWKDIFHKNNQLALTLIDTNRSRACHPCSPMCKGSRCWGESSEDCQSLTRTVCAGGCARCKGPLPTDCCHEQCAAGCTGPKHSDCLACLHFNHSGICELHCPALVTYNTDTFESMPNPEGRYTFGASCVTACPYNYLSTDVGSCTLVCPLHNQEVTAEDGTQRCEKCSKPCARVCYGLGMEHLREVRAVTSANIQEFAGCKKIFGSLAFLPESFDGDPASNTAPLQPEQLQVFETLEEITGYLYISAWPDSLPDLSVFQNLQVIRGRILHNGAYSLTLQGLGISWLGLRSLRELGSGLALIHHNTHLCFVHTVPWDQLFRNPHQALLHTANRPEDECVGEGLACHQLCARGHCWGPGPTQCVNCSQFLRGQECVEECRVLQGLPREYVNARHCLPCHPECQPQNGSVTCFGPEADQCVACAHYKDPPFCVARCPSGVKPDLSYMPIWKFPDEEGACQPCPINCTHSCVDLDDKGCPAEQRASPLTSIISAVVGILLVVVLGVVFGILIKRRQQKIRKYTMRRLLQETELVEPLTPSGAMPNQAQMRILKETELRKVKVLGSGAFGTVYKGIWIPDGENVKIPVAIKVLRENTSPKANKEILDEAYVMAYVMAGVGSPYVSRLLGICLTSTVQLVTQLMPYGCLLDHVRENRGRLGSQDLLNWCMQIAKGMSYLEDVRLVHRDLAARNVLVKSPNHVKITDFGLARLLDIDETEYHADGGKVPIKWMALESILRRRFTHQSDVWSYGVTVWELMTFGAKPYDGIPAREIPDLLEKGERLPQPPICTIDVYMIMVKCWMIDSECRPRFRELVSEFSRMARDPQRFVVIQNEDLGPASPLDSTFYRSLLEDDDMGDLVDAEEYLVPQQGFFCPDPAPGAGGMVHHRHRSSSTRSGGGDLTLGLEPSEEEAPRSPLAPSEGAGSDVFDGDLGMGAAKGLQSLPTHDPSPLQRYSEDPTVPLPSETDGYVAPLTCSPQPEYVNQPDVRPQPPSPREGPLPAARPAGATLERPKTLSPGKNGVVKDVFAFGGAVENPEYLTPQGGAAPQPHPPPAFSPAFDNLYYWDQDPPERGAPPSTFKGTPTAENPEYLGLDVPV
ErbB2 WT, sequence (P04626 23-1255): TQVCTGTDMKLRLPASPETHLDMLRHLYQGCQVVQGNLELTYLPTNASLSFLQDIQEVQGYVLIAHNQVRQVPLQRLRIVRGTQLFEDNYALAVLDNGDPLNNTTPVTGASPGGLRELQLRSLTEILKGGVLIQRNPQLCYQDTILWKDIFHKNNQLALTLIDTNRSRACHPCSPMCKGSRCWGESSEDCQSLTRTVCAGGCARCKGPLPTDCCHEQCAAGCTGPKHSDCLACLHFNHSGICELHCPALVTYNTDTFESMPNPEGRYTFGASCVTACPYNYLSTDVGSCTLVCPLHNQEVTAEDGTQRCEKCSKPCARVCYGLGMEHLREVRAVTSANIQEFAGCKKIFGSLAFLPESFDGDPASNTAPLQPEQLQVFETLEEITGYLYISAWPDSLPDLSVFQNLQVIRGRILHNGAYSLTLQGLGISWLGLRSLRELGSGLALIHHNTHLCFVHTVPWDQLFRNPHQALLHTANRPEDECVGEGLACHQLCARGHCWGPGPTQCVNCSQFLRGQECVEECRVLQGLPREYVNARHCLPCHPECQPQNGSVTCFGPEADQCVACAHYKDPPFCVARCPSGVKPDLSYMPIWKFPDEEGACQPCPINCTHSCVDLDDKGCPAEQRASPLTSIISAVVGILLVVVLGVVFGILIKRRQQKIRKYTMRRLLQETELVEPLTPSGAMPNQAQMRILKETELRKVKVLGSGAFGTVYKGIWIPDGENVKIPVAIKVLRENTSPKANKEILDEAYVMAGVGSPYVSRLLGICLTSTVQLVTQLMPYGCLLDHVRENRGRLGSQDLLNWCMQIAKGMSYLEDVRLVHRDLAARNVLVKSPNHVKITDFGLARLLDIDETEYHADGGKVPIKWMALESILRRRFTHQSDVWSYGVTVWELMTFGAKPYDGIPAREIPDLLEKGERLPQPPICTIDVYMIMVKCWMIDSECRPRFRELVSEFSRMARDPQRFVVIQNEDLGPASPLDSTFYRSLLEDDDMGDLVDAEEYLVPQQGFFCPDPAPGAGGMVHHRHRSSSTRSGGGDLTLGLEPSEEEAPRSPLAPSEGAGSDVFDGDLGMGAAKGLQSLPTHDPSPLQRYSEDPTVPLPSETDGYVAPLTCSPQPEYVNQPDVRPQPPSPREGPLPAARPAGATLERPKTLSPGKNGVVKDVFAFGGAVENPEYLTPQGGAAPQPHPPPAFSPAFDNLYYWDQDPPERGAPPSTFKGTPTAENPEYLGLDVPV
EGFR wild type (EGFR WT), sequence (P00533 25-1210): as the sequence (P00533 25-1210) above

SMILES | efflux ratio at 2 h, 1 µM [1] | IC50 [2] | IC50 [3] | IC50 [4] | IC50 [5]
C=CC(=O)N1CC[C@H]2CN(c3ccc4ncnc(Nc5cc(C)c(Oc6ccn7ncnc7c6)cc5F)c4n3)C[C@H]21 [Example 26, 1-((3aS,6aS)-5-(4-((4-([1,2,4]triazolo[1,5-a]pyridin-7-yloxy)-2-fluoro-5-methylphenyl)amino)pyrido[3,2-d]pyrimidin-6-yl)hexahydropyrrolo[3,4-b]pyrrol-1(2H)-yl)prop-2-en-1-one] | 8.3 | ≥ 5000 nM | 20.4 nM | 121 nM | ≥ 10000 nM
C=CC(=O)N1CCN(c2ccc3ncnc(Nc4ccc(Oc5cnc6c(c5)ncn6C)c(Cl)c4)c3n2)CC1 [Example 33, 1-(4-(4-((3-chloro-4-((3-methyl-3H-imidazo[4,5-b]pyridin-6-yl)oxy)phenyl)amino)pyrido[3,2-d]pyrimidin-6-yl)piperazin-1-yl)prop-2-en-1-one] | 42.7 | 869 nM | 3.8 nM | 15.8 nM | 1150 nM
C=CC(=O)N1CCC(c2ccc3ncnc(Nc4ccc(Oc5ccc6c(c5)ncn6C)c(C)c4)c3n2)CC1 [Example 34, 1-(4-(4-((3-methyl-4-((1-methyl-1H-benzo[d]imidazol-5-yl)oxy)phenyl)amino)pyrido[3,2-d]pyrimidin-6-yl)piperidin-1-yl)prop-2-en-1-one] | 6.7 | ≥ 5000 nM | 9.5 nM | 28.7 nM | 6870 nM
C=CC(=O)N1CCN(c2nc3c(Oc4ccc(Oc5ccc6c(c5)ncn6C)c(C)c4)ncnc3cc2OC)CC1 [Example 41, 1-(4-(7-methoxy-4-(3-methyl-4-((1-methyl-1H-benzo[d]imidazol-5-yl)oxy)phenoxy)pyrido[3,2-d]pyrimidin-6-yl)piperazin-1-yl)prop-2-en-1-one] | 16.7 | ≥ 5000 nM | 31 nM | 130 nM | 5070 nM
C=CC(=O)N1C2CC1CN(c1ccc3ncnc(Nc4ccc(Oc5ccn6ncnc6c5)c(C)c4F)c3n1)C2 [Example 47, 1-(3-(4-((4-([1,2,4]triazolo[1,5-a]pyridin-7-yloxy)-2-fluoro-3-methylphenyl)amino)pyrido[3,2-d]pyrimidin-6-yl)-3,6-diazabicyclo[3.1.1]heptan-6-yl)prop-2-en-1-one] | 9.6 | 2130 nM | 13.7 nM | 60.9 nM | 3720 nM
C=CC(=O)N1C2CC1CN(c1ccc3ncnc(Nc4cc(C)c(Oc5ccc6c(c5)ncn6C)cc4F)c3n1)C2 [Example 48, 1-(3-(4-((2-fluoro-5-methyl-4-((1-methyl-1H-benzo[d]imidazol-5-yl)oxy)phenyl)amino)pyrido[3,2-d]pyrimidin-6-yl)-3,6-diazabicyclo[3.1.1]heptan-6-yl)prop-2-en-1-one] | 10.2 | ≥ 5000 nM | 16.6 nM | 264 nM | ≥ 10000 nM
C=CC(=O)N1CCC(Sc2ccc3ncnc(Nc4ccc(Oc5ccc6c(c5)ncn6C)c(C)c4)c3n2)CC1 [Example 59, 1-(4-((4-((3-methyl-4-((1-methyl-1H-benzo[d]imidazol-5-yl)oxy)phenyl)amino)pyrido[3,2-d]pyrimidin-6-yl)thio)piperidin-1-yl)prop-2-en-1-one] | 10.8 | ≥ 5000 nM | 19 nM | 25.4 nM | 534 nM

Results, then the compound that gave them:

efflux ratio at 2 h, 1 µM [1] | IC50 [2] | IC50 [3] | IC50 [4] | IC50 [5] | SMILES
3.8 | 426 nM | 19.5 nM | 31.4 nM | 508 nM | C=CC(=O)N1CC(Sc2ccc3ncnc(Nc4ccc(Oc5ccn6ncnc6c5)c(C)c4F)c3n2)C1 [Example 63, 1-(3-((4-((4-([1,2,4]triazolo[1,5-a]pyridin-7-yloxy)-2-fluoro-3-methylphenyl)amino)pyrido[3,2-d]pyrimidin-6-yl)thio)azetidin-1-yl)prop-2-en-1-one]
41.8 | ≥ 5000 nM | 21.6 nM | 10 nM | 2950 nM | C=CC(=O)N1CCC2CN(c3ccc4ncnc(Nc5ccc(Oc6ccn7ncnc7c6)c(Cl)c5)c4n3)CC21 (stereo not drawn) [Example 70, 1-(5-(4-((4-([1,2,4]triazolo[1,5-a]pyridin-7-yloxy)-3-chlorophenyl)amino)pyrido[3,2-d]pyrimidin-6-yl)hexahydropyrrolo[3,4-b]pyrrol-1(2H)-yl)prop-2-en-1-one]
15.4 | 511 nM | 4.7 nM | 8.7 nM | 880 nM | C=CC(=O)N1CCN(c2ccc3ncnc(Nc4ccc(Oc5ccc6c(c5)ncn6C)c(Cl)c4)c3n2)CC1 [Example 72, 1-(4-(4-((3-chloro-4-((1-methyl-1H-benzo[d]imidazol-5-yl)oxy)phenyl)amino)pyrido[3,2-d]pyrimidin-6-yl)piperazin-1-yl)prop-2-en-1-one]
6.4 | 298 nM | 5.7 nM | 9.2 nM | 1710 nM | C=CC(=O)N1CCN(c2ccc3ncnc(Nc4ccc(Oc5ccn6ncnc6c5)c(Cl)c4)c3n2)CC1(C)C [Example 74, 1-(4-(4-((4-([1,2,4]triazolo[1,5-a]pyridin-7-yloxy)-3-chlorophenyl)amino)pyrido[3,2-d]pyrimidin-6-yl)-2,2-dimethylpiperazin-1-yl)prop-2-en-1-one]
3.8 | ≥ 5000 nM | 13.7 nM | 65.2 nM | ≥ 10000 nM | C=CC(=O)N1CCN(c2ccc3ncnc(Nc4ccc(Oc5ccc6c(c5)ncn6C)c(C)c4F)c3n2)CC1(C)C [Example 75, 1-(4-(4-((2-fluoro-3-methyl-4-((1-methyl-1H-benzo[d]imidazol-5-yl)oxy)phenyl)amino)pyrido[3,2-d]pyrimidin-6-yl)-2,2-dimethylpiperazin-1-yl)prop-2-en-1-one]
11.6 | 874 nM | 9.3 nM | 9 nM | 2550 nM | C=CC(=O)N1CCN(c2ccc3ncnc(Nc4ccc(Oc5ccn6ncnc6c5)c(C)c4)c3n2)CC1(C)C [Example 77, 1-(4-(4-((4-([1,2,4]triazolo[1,5-a]pyridin-7-yloxy)-3-methylphenyl)amino)pyrido[3,2-d]pyrimidin-6-yl)-2,2-dimethylpiperazin-1-yl)prop-2-en-1-one]
12.4 | 246 nM | 4.1 nM | 17 nM | 218 nM | C=CC(=O)N1C[C@@H]2C[C@H]1CN2c1ccc2ncnc(Nc3cc(Cl)c(Oc4ccn5ncnc5c4)cc3F)c2n1 [Example 80, 1-((1S,4S)-5-(4-((4-([1,2,4]triazolo[1,5-a]pyridin-7-yloxy)-5-chloro-2-fluorophenyl)amino)pyrido[3,2-d]pyrimidin-6-yl)-2,5-diazabicyclo[2.2.1]heptan-2-yl)prop-2-en-1-one]
17.4 | ≥ 5000 nM | 9.5 nM | 33.2 nM | 9430 nM | C=CC(=O)N1CCN(c2ccc3ncnc(Nc4cc(Cl)c(Oc5ccn6ncnc6c5)cc4F)c3n2)CC1 [Example 81, 1-(4-(4-((4-([1,2,4]triazolo[1,5-a]pyridin-7-yloxy)-5-chloro-2-fluorophenyl)amino)pyrido[3,2-d]pyrimidin-6-yl)piperazin-1-yl)prop-2-en-1-one]
